“And” between values parts separate entries of the source, which are not always exact repeats. Identical values can stand only once.
Tests used:
[1] = xn = mol fraction of the nth substance listed

O=C(O)CCl
Conditions	viscosity [mPa·s]
323.15 K, 101 kPa	3.091

O=CC(Cl)(Cl)Cl
viscosity
Conditions	298.15 K	308.15 K	313.15 K	318.15 K	323.15 K
101 kPa	1.055 mPa·s and 1.055 mPa·s (2×)	0.9017 mPa·s	1.009 mPa·s and 0.8411 mPa·s	0.934 mPa·s	0.764 mPa·s and 0.7641 mPa·s and 0.869 mPa·s
101.33 kPa	1.055 mPa·s	–	–	–	0.7641 mPa·s

ClC(Cl)Cl
Conditions	viscosity
293.15 K, 101.33 kPa	0.5659 mPa·s
293.16 K, 101 kPa	0.563 mPa·s
298 K, 101 kPa	0.5427 mPa·s
298 K, 101.33 kPa	0.538 mPa·s
298.16 K, 101 kPa	0.542 mPa·s
303 K, 101.3 kPa	0.5254 mPa·s and 0.5249 mPa·s
303 K, 101.33 kPa	0.517 mPa·s
303.15 K, 101.3 kPa	0.5129 mPa·s and 0.5129 mPa·s and 0.5033 mPa·s
303.15 K, 101.33 kPa	0.514 mPa·s and 0.471 mPa·s
303.16 K, 101 kPa	0.514 mPa·s
303.75 K, 101 kPa	0.5393 mPa·s
308 K, 101 kPa	0.4881 mPa·s
308.15 K, 101 kPa	0.482 mPa·s
308.15 K, 101.33 kPa	0.452 mPa·s and 0.5065 mPa·s and 0.485 mPa·s
311 K, 101.3 kPa	0.4893 mPa·s and 0.4893 mPa·s
313 K, 101.33 kPa	0.479 mPa·s
313.15 K, 101 kPa	0.472 mPa·s and 0.4891 mPa·s and 0.557 mPa·s
318 K, 101 kPa	0.4487 mPa·s
318.15 K, 101.33 kPa	0.442 mPa·s
319 K, 101.3 kPa	0.4566 mPa·s and 0.4571 mPa·s
323 K, 101.33 kPa	0.447 mPa·s
323.15 K, 101 kPa	0.491 mPa·s
323.15 K, 101.33 kPa	0.4473 mPa·s

CCCCCCCCCCCCCC[P+](CCCC)(CCCC)CCCC.CCCCCCCCCCCCc1ccccc1S(=O)(=O)[O-]
101 kPa
Conditions	viscosity [mPa·s]
313.15 K	1480
323.15 K	750

CC[n+]1ccn(C)c1.COS(=O)(=O)[O-]
101 kPa
Conditions	viscosity
293.15 K	84.14 mPa·s
298.15 K	84.3 mPa·s and 68.5 mPa·s
303.15 K	68.7 mPa·s and 55.4 mPa·s and 57.93 mPa·s
308.15 K	56.7 mPa·s and 45.5 mPa·s
313.15 K	47.6 mPa·s and 37.9 mPa·s and 39.54 mPa·s
323.15 K	28.33 mPa·s

OCC(F)(F)C(F)(F)F
100 kPa
Conditions	viscosity [mPa·s]
298.15 K	3.367
323.15 K	1.518

CCCC[N+]1(C)CCCCC1.O=S(=O)([N-]S(=O)(=O)C(F)(F)F)C(F)(F)F
Conditions	viscosity [mPa·s]
298.15 K, 101 kPa	178.5

CCOCCOCC
101.33 kPa
Conditions	viscosity [mPa·s]
298.15 K	0.602
308.15 K	0.522

CCn1cc[n+](C)c1.C[C@H](N)C(=O)[O-]
101 kPa
Conditions	viscosity [mPa·s]
308.15 K	137.5
313.15 K	103.5

FC(F)Cl
101 kPa
Conditions	viscosity [mPa·s]
293.25 K	0.1758
313.35 K	0.1381

CC(=O)OCc1ccccc1
Conditions	viscosity [mPa·s]
323.15 K, 101.33 kPa	1.23

ClC(Cl)Cl + CCCCO
viscosity [mPa·s], [1], 303.15 K
Conditions	101 kPa	101.3 kPa
x2 = 0.0563	0.5315	0.5315
x2 = 0.0995	0.5491	0.5491
x2 = 0.1395	0.5709	0.5709
x2 = 0.1858	0.6001	0.6001
x2 = 0.2305	0.6329	0.6329
x2 = 0.2878	0.6839	0.6839
x2 = 0.301	0.6958	0.6958
x2 = 0.3666	0.7663	0.7663
x2 = 0.4891	0.9373	0.9373
x2 = 0.5662	1.076	1.076
x2 = 0.6718	1.314	1.314
x2 = 0.7659	1.574	1.574
x2 = 0.8333	1.78	1.78
x2 = 0.9386	2.107	2.107

CCOCCOCC + COCCOCCOCCO
viscosity [mPa·s], [1], 101.33 kPa
Conditions	298.15 K	308.15 K
x2 = 0.0126	0.622	0.539
x2 = 0.0328	0.652	0.561
x2 = 0.052	0.688	0.586
x2 = 0.0807	0.73	0.617
x2 = 0.1339	0.824	0.691
x2 = 0.1806	0.917	0.765
x2 = 0.2394	1.047	0.872
x2 = 0.2918	1.18	0.978
x2 = 0.342	1.332	1.097
x2 = 0.385	1.473	1.198
x2 = 0.4103	1.588	1.262
x2 = 0.4604	1.801	1.417
x2 = 0.5091	2.04	1.573
x2 = 0.5505	2.273	1.725
x2 = 0.5978	2.561	1.923
x2 = 0.6522	2.935	2.167
x2 = 0.7117	3.396	2.476
x2 = 0.7976	4.169	2.989
x2 = 0.8577	4.791	3.415
x2 = 0.9256	5.588	3.957
x2 = 0.9633	6.103	4.311

CC(=O)OCc1ccccc1 + Cc1ccc(C)cc1
viscosity [mPa·s], [1], 101 kPa
Conditions	x1 = 0.0917	x1 = 0.1773	x1 = 0.2764	x1 = 0.3701	x1 = 0.4679	x1 = 0.5689	x1 = 0.6717	x1 = 0.7678	x1 = 0.8698	x1 = 0.9473
303.15 K	0.602	0.645	0.716	0.792	0.891	1.005	1.134	1.267	1.421	1.549
313.15 K	0.537	0.571	0.624	0.681	0.76	0.85	0.937	1.036	1.179	1.273

CCCCCCCCCCCCCCCC + CC(C)CC(C)(C)C
[1], 298.15 K
Conditions	viscosity [mPa·s]
101 kPa, x2 = 0.05562	2.82
101 kPa, x2 = 0.1311	2.55
101 kPa, x2 = 0.1971	2.371
101 kPa, x2 = 0.307	1.95
101 kPa, x2 = 0.4264	1.651
101 kPa, x2 = 0.5472	1.337
101 kPa, x2 = 0.6552	1.077
101 kPa, x2 = 0.7341	0.9214
101 kPa, x2 = 0.8043	0.7819
101 kPa, x2 = 0.8275	0.7495
101 kPa, x2 = 0.8768	0.6682
101 kPa, x2 = 0.929	0.5871
101 kPa, x2 = 0.9511	0.5441
101.33 kPa, x1 = 0.101	0.6392
101.33 kPa, x1 = 0.199	0.8143
101.33 kPa, x1 = 0.2987	1.014
101.33 kPa, x1 = 0.4006	1.24
101.33 kPa, x1 = 0.4999	1.489
101.33 kPa, x1 = 0.6004	1.765
101.33 kPa, x1 = 0.7002	2.062
101.33 kPa, x1 = 0.8003	2.391
101.33 kPa, x1 = 0.9001	2.72

Reference: the CheMixHub viscosity set
